Measurements reported in patent US10874743B2, “IRAK degraders and uses thereof” (Kymera Therapeutics, Inc., priority 2017, dated 2020).

Tests used:
Format in all cases: cell-based
OCI-LY10 cells = assay: OCI-LY-10 CTG cell viability assay (EC50); settings: Homo sapiens, 96 h, CellTiter-Glo cell viability, 4 days incubation, top concentration 10 μM, read-out: OCI-LY10 IRAK4 EC50
Protocol: A CTG cell viability assay using OCI-LY-10 cells was run to determine compound-mediated cell viability (EC50).
Compound-mediated viability effect on OCI-LY10 was quantitatively determined using the CellTiter-Glo® Luminescent Cell Viability Assay kit from Promega (Catalog number G7570) following manufacturer's recommended procedures. […] Compounds were then added to the assay plate with final top concentration of 10 μM and 1:3 dilution series with total of 9 doses. The final DMSO concentration was normalized to 0.2%. The assay plates were incubated at 37° C. for 4 days under 5% CO2. Then the assay plate was equilibrated at room temperature for 10 minutes. […] The data was then analyzed by software Prism 7.0 from GraphPad and the dose response curves were fit using a three-parameter logistic equation to calculate EC50.

IRAK4 [1] = molecular target: T1, IRAK4 (Homo sapiens, UniProt Q9NWZ3); assay: OCI-LY-10 degradation assay (western blot, % IRAK4 degraded after 4 hours); design: endogenous in cells; host or cells: OCI-LY10; settings: OCI-LY10 cells, 4 hours; for OCI-LY10 % IRAK4 Degradation (0.01 uM): 0.01 uM compound; for OCI-LY10 % IRAK4 Degradation (0.1 uM): 0.1 uM compound; for OCI-LY10 % IRAK4 Degradation (1 uM): 1 uM compound
T1 sequence (Q9NWZ3 1-460): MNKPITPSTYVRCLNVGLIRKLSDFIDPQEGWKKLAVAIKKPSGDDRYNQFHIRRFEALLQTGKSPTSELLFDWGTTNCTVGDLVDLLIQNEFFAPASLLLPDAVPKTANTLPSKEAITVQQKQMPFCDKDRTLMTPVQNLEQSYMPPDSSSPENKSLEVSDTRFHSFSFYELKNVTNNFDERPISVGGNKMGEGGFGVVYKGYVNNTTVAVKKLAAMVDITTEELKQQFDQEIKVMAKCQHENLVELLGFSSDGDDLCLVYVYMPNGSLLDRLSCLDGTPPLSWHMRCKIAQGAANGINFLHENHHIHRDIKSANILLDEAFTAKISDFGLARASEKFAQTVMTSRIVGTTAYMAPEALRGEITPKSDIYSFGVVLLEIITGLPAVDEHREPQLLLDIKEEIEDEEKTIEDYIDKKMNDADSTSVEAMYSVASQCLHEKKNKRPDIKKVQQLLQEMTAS
Procedure, shortened: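 IRAK4 loss after 4 h at 37° C was scored A (>50%), B (>20-50%) or C (<20%) from infrared western blots of RIPA lysates, 20-25 μg protein per lane. Compound was applied at 0.003-10 μM final to OCI-LY10 cells cultured in RPMI-1640 with 20% FBS and 55 μM 2-ME.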

IRAK4 [2] = molecular target: T1, IRAK4; assay: OCI-LY-10 MSD assay for IRAK4 DC50; design: endogenous in cells; host or cells: OCI-LY10; settings: OCI-LY10 cells, 4 hr incubation, concentration required to degrade 50% of protein
Procedure, shortened: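 IRAK4 level was quantified by MSD electrochemiluminescence (anti-IRAK4 capture antibody, rabbit anti-IRAK4 detection antibody) in RIPA lysates of OCI-Ly10 cells. Cells had been treated with compound for 4 hr (8-point, 3-fold serial dilution). Remaining protein versus concentration was fitted to a sigmoidal curve to give DC50.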

Cn1c(=O)n(C2CCC(=O)NC2=O)c2ccc(CCCN3CCO[C@@H](CCNCc4ccc(-n5cc(NC(=O)c6coc(-c7ccnc(NCC(F)(F)F)c7)n6)c(C(N)=O)n5)cc4)C3)cc21 (stereo partly shown) [I-575]
EC50 (OCI-LY10 cells): 100 to 500 nM

Cn1cc(NC(=O)c2cnn3ccc(N4CCN(C(=O)COCCOCCCc5ccc6c(c5)n(C)c(=O)n6C5CCC(=O)NC5=O)CC4)nc23)c(C(F)F)n1 (stereo not shown) [I-469]
EC50 (OCI-LY10 cells): > 1000 nM

Cn1c(=O)n(C2CCC(=O)NC2=O)c2cccc(C#CCOCCOCCn3cc4cc(NC(=O)c5cccc(C(F)(F)F)n5)c(C(C)(C)O)cc4n3)c21 (stereo not shown) [I-688, N-[2-[2-[2-[3-[1-(2,6-dioxo-3-piperidyl)-3-methyl-2-oxo-benzimidazol-4-yl]prop-2-ynoxy]ethoxy]ethyl]-6-(1-hydroxy-1-methyl-ethyl)indazol-5-yl]-6-(trifluoromethyl)pyridine-2-carboxamide]
EC50 (OCI-LY10 cells): > 1000 nM

CN1CCN(C(=O)c2nn(-c3ccc(C(=O)NCCCCOCCCCc4ccc5c(c4)n(C)c(=O)n5C4CCC(=O)NC4=O)cc3)cc2NC(=O)c2coc(-c3ccnc(NCC(F)(F)F)c3)n2)CC1 (stereo not shown) [I-481]
EC50 (OCI-LY10 cells): 50 to 100 nM

Cn1cc(NC(=O)c2cnn3ccc(N4CCNCC4)nc23)c(C(=O)NCCOCCOCCOCCNc2cccc3c2C(=O)N(C2CCC(=O)NC2=O)C3=O)n1 (stereo not shown) [I-471]
EC50 (OCI-LY10 cells): > 1000 nM

Cc1ncsc1-c1ccc(CNC(=O)[C@@H]2C[C@@H](O)CN2C(=O)[C@@H](NC(=O)COCCOCCOCCOCCOCC(=O)N2CCN(c3ccn4ncc(C(=O)Nc5cn(C)nc5C(F)F)c4n3)CC2)C(C)(C)C)cc1 [I-484]
EC50 (OCI-LY10 cells): > 1000 nM

CN1C(=O)CCC(n2c(=O)n(C)c3c(CCCOCCOCCNC(=O)c4ccc(-n5cc(NC(=O)c6coc(-c7ccnc(NCC8CC8)c7)n6)c(C(F)F)n5)cc4)cccc32)C1=O (stereo not shown) [I-515]
EC50 (OCI-LY10 cells): 500 to 1000 nM

N#Cc1nn(-c2ccc(CNCCOCCOCCCc3ccc4c(c3)oc(=O)n4C3CCC(=O)NC3=O)cc2)cc1NC(=O)c1coc(-c2ccnc(NCC3CC3)c2)n1 (stereo not shown) [I-538]
EC50 (OCI-LY10 cells): > 1000 nM

CN(Cc1ccc(-n2cc(NC(=O)c3coc(-c4ccnc(NCC5CC5)c4)n3)c(C(F)F)n2)cc1)C[C@H]1CN(CCCc2ccc3c(c2)n(C)c(=O)n3C2CCC(=O)NC2=O)CCO1 (stereo partly shown) [I-598]
EC50 (OCI-LY10 cells): < 50 nM

Cn1c(=O)n(C2CCC(=O)NC2=O)c2cccc(CCCOCCOCCNCc3ccc(-n4cc(NC(=O)c5coc(-c6ccnc(NCC7CC7)c6)n5)c(C(F)F)n4)cc3)c21 (stereo not shown) [I-332]
OCI-LY10 % IRAK4 Degradation (0.01 uM) (IRAK4 [1]): A (>50% degradation)
OCI-LY10 % IRAK4 Degradation (0.1 uM) (IRAK4 [1]): A (>50% degradation)
OCI-LY10 % IRAK4 Degradation (1 uM) (IRAK4 [1]): A (>50% degradation)
DC50 (IRAK4 [2]): < 50 nM

NC(=O)c1nn(-c2ccc(C(=O)NCCOCCOCCCc3cccc4c3oc(=O)n4C3CCC(=O)NC3=O)cc2)cc1NC(=O)c1coc(-c2ccnc(NCC(F)(F)F)c2)n1 (stereo not shown) [I-266]
OCI-LY10 % IRAK4 Degradation (0.01 uM) (IRAK4 [1]): C (<20% degradation)
OCI-LY10 % IRAK4 Degradation (0.1 uM) (IRAK4 [1]): A (>50% degradation)
OCI-LY10 % IRAK4 Degradation (1 uM) (IRAK4 [1]): A (>50% degradation)
DC50 (IRAK4 [2]): < 50 nM

Cn1cc(-c2nc(C(=O)Nc3cn(-c4ccc(CNCCOCCOCCNc5cccc6c5C(=O)N(C5CCC(=O)NC5=O)C6=O)cc4)nc3C(F)F)co2)cn1 (stereo not shown) [I-352]
OCI-LY10 % IRAK4 Degradation (0.01 uM) (IRAK4 [1]): C (<20% degradation)
OCI-LY10 % IRAK4 Degradation (0.1 uM) (IRAK4 [1]): C (<20% degradation)
OCI-LY10 % IRAK4 Degradation (1 uM) (IRAK4 [1]): C (<20% degradation)
DC50 (IRAK4 [2]): > 1000 nM

CN(CCOCCOCCCc1cccc2c1C(=O)N(C1CCC(=O)NC1=O)C2=O)C(=O)c1ccc(-n2cc(NC(=O)c3coc(-c4ccnc(NCC5CC5)c4)n3)c(C(F)F)n2)cc1 (stereo not shown) [I-225]
OCI-LY10 % IRAK4 Degradation (0.01 uM) (IRAK4 [1]): C (<20% degradation)
OCI-LY10 % IRAK4 Degradation (0.1 uM) (IRAK4 [1]): A (>50% degradation)
OCI-LY10 % IRAK4 Degradation (1 uM) (IRAK4 [1]): A (>50% degradation)
DC50 (IRAK4 [2]): < 50 nM

CN(CCOCCOCCCc1ccc2c(c1)C(=O)N(C1CCC(=O)NC1=O)C2=O)C(=O)c1ccc(-n2cc(NC(=O)c3coc(-c4ccnc(NCC(F)(F)F)c4)n3)c(C(F)F)n2)cc1 (stereo not shown) [I-279]
OCI-LY10 % IRAK4 Degradation (0.01 uM) (IRAK4 [1]): C (<20% degradation)
OCI-LY10 % IRAK4 Degradation (0.1 uM) (IRAK4 [1]): A (>50% degradation)
OCI-LY10 % IRAK4 Degradation (1 uM) (IRAK4 [1]): A (>50% degradation)
DC50 (IRAK4 [2]): 50 to 100 nM

O=C1CCC(N2C(=O)c3cccc(NC4CCN(CCOCCOCCOCCNC(=O)c5ccc(-n6cc(NC(=O)c7coc(-c8ccnc(NCC9CC9)c8)n7)c(C(F)F)n6)cc5)CC4)c3C2=O)C(=O)N1 (stereo not shown) [I-269]
OCI-LY10 % IRAK4 Degradation (0.01 uM) (IRAK4 [1]): C (<20% degradation)
OCI-LY10 % IRAK4 Degradation (0.1 uM) (IRAK4 [1]): B (>20-50% degradation)
OCI-LY10 % IRAK4 Degradation (1 uM) (IRAK4 [1]): A (>50% degradation)
DC50 (IRAK4 [2]): < 50 nM

NC(=O)c1nn(-c2ccc(COCC3CN(CCOCCNc4cccc5c4C(=O)N(C4CCC(=O)NC4=O)C5=O)CCO3)cc2)cc1NC(=O)c1coc(-c2ccnc(NCC(F)(F)F)c2)n1 (stereo not shown) [I-302, N-[3-carbamoyl-1-[4-[[4-[2-[2-[[2-(2,6-dioxo-3-piperidyl)-1,3-dioxo-isoindolin-4-yl]amino]ethoxy]ethyl]morpholin-2-yl]methoxymethyl]phenyl]pyrazol-4-yl]-2-[2-(2,2,2-trifluoroethylamino)-4-pyridyl]oxazole-4-carboxamide]
OCI-LY10 % IRAK4 Degradation (0.01 uM) (IRAK4 [1]): B (>20-50% degradation)
OCI-LY10 % IRAK4 Degradation (0.1 uM) (IRAK4 [1]): A (>50% degradation)
OCI-LY10 % IRAK4 Degradation (1 uM) (IRAK4 [1]): A (>50% degradation)
DC50 (IRAK4 [2]): < 50 nM
